In US12630643B2, “CD40 binding protein, bispecific conjugate thereof and method of treating cancer” (priority 2020, dated 2026):

B1: X-SM083-ab-2: agonistic anti-CD40 antibody 1150/1151 (WO 2015/091853) as hIgG2 (antibody)
heavy: EVQLLESGGGLVQPGGSLRLSCAASGFTFSSYAMSWVRQAPGKGLEWVSGIGGSSSYTSYADSVKGRFTISRDNSKNTLYLQMNSLRAEDTAVYYCARYYSYHMDYWGQGTLVTVSSASTKGPSVFPLAPCSRSTSESTAALGCLVKDYFPEPVTVSWNSGALTSGVHTFPAVLQSSGLYSLSSVVTVPSSNFGTQTYTCNVDHKPSNTKVDKTVERKCCVECPPCPAPPVAGPSVFLFPPKPKDTLMISRTPEVTCVVVDVSHEDPEVQFNWYVDGVEVHNAKTKPREEQFNSTFRVVSVLTVVHQDWLNGKEYKCKVSNKGLPAPIEKTISKTKGQPREPQVYTLPPSREEMTKNQVSLTCLVKGFYPSDISVEWESNGQPENNYKTTPPMLDSDGSFFLYSKLTVDKSRWQQGNVFSCSVMHEALHNHYTQKSLSLSPGK
light: DIQMTQSPSSLSASVGDHVTITCRASQSISSYLNWYQQKPGKAPKLLIYAASSLQSGVPSRFSGSGSGTDFTLTISSLQPEDFATYYCQQYGSAPPTFGQGTKLEIK
modifications: left off: a dimerising Fc or GST
notes: agonistic anti-CD40 antibody 1150/1151 (WO 2015/091853) as hIgG2

Experiments:
IBIIICI scFv = assay type: binding, mouse
14GIIICII scFv = assay type: binding, mouse
[1] = target: CD40 ligand interaction with CD40 (Homo sapiens, UniProt P25942); conditions: Yu et al. 2018; WO 2015/091853; cited from earlier work
Canine CD40-Fc = target: T1, Canine CD40-Fc (Canis lupus familiaris, UniProt Q7YRL5); test: SPR single cycle kinetics of Example 5, canine CD40-Fc; assay type: binding
T1 construct: purchased Sino Biological 70105-D02H
T1 sequence (Q7YRL5 21-193 limits assumed): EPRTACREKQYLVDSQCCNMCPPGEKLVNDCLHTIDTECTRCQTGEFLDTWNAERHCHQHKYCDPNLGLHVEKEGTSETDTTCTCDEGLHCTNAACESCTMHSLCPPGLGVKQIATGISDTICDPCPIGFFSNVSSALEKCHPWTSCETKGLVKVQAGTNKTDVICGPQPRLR

Human CD40-avi = Human CD40-avi (Homo sapiens, UniProt P25942); test: SPR kinetic measurements (single cycle kinetics) on captured IgG2, hCD40-avi; conditions: 1:1 Langmuir binding model
canine (dog) CD40 = target: T2, canine (dog) CD40 (Canis lupus familiaris, UniProt Q7YRL5); conditions: stated in US2006-0093600; cited from earlier work
T2 sequence (Q7YRL5 21-274): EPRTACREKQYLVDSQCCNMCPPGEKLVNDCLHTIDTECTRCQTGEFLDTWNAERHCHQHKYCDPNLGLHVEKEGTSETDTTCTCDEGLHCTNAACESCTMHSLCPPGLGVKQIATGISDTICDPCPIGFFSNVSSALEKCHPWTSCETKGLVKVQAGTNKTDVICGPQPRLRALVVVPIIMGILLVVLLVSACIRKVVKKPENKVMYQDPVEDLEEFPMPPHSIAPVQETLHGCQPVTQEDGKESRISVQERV

CD40 on CD19+ cells = CD40 on CD19+ cells (Homo sapiens, UniProt P25942); test: Competitive binding with anti-CD40-FITC antibody 5C3, flow cytometry; conditions: 25 nM-50 nM antibody, 30 min on ice
Human CD40-Fc [2] = target: T3, Human CD40-Fc (Homo sapiens, UniProt P25942); test: SPR kinetic measurements (single cycle kinetics) on captured IgG2, hCD40-Fc; conditions: for ka / kd: Human CD40-Fc (dimer, avidity effects may contribute)
Target sequence in this assay (P25942 21-193): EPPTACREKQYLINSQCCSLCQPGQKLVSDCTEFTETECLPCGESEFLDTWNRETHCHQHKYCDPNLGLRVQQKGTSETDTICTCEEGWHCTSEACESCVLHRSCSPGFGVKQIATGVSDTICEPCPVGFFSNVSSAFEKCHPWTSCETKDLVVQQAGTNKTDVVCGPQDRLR

Cynomolgus CD40-Fc = test: SPR kinetic measurements (single cycle kinetics) on captured IgG2, cCD40-Fc; conditions: for ka / kd: Cynomolgus CD40-Fc (dimer, avidity effects may contribute)
Human CD40-Fc [3] = target: T3, Human CD40-Fc; test: SPR single cycle kinetics of Example 5, human CD40-Fc; design: purchased Sino Biological 10774-H38H; conditions: 1:1 Binding
Target sequence in this assay (P25942 21-193 limits assumed): as the sequence (P25942 21-193) above

[4] = test system: human monocyte-derived DC (MoDC); test: MoDC activation, flow cytometry of surface activation markers (t-SNE); conditions: 125 nM antibody, 48 hours of stimulation
[5] = test system: human monocyte-derived dendritic cells; test: Internalisation of antibody into dendritic cells; conditions: 125 nM antibody

Human CD40-avi, sequence (P25942 21-193): as above
CD40 ligand interaction with CD40, sequence (P25942 21-277): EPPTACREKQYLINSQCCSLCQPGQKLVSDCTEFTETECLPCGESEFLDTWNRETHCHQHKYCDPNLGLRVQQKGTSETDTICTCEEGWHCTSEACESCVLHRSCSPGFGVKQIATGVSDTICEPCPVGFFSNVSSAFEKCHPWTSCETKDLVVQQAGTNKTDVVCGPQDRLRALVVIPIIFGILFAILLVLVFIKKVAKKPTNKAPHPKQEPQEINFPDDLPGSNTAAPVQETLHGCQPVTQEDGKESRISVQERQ
CD40 on CD19+ cells, sequence (P25942 21-277): as above

Row | Molecule | ka (IBIIICI scFv) [M⁻¹ s⁻¹] | Kd (14GIIICII scFv) [nM] | ka (14GIIICII scFv) [M⁻¹ s⁻¹] | kd (14GIIICII scFv) [s⁻¹] | Kd (IBIIICI scFv) [nM] | kd (IBIIICI scFv) [s⁻¹] | other results
1 | FIGITELKKLESKI [UU72] | 250000 | 0.6 | 570000 | 0.00034 |  |  | kd (1/s) (IBIIICI scFv): * (key: *: too low for, or very close to the detection limit of, instrument specification (<10^−5))
2 | FIGITELKKLESK [UU73] | 200000 | 0.87 | 510000 | 0.00044 | 0.34 | 6.7e-05 | 
3 | FIGITELKKLES [UU74] | 280000 | 1.7 | 570000 | 0.00095 | 0.12 | 3.3e-05 | 
4 | FIGITELKKLESKINKVF (SEQ ID NO: 25), C-term K-biotin; full length MTTE [UU24] | 190000 | 0.3 | 660000 | 0.0002 | 0.12 | 2.3e-05 | 
5 | X-SM083-ab-5: agonistic anti-CD40 antibody CP-870,893 (US 2017/0342159) as hIgG2 |  |  |  |  |  |  | competition with / blocking of CD40 ligand [1]: without blocking CD40 ligand interaction; Ka (Canine CD40-Fc; Canine CD40-Fc, 1:1 Binding): 170000 M⁻¹ s⁻¹; kd (Canine CD40-Fc; Canine CD40-Fc, 1:1 Binding): 0.00041 s⁻¹; affinity for canine CD40 lower than for the human orthologue (Canine CD40-Fc; canine vs human CD40-Fc): approximately 10 times; binding to canine CD40 (Canine CD40-Fc; in words): exhibited binding to canine CD40; Kd (Human CD40-avi): 18 nM; ka (Human CD40-avi): 62000 M⁻¹ s⁻¹; kd (Human CD40-avi): 0.0011 s⁻¹; binding to canine (dog) CD40 (canine (dog) CD40): does not bind to canine (dog) CD40; 5C3-FITC staining after pre-incubation with antibody (CD40 on CD19+ cells): loss of the FITC signal; ka (Human CD40-Fc [2]): 66000 M⁻¹ s⁻¹; kd (Human CD40-Fc [2]): 3.2e-05 s⁻¹; ka (Cynomolgus CD40-Fc): 91000 M⁻¹ s⁻¹; kd (Cynomolgus CD40-Fc): 2.5e-05 s⁻¹; kd (Human CD40-Fc [3]): 3.6e-05 s⁻¹; Kd (Human CD40-Fc [3]; read-out: ^appKD): 0.2 nM; Ka (Human CD40-Fc [3]; optimised follow-up experiment): 190000 M⁻¹ s⁻¹
6 | FIGITELKKLESKIN [UU71] | 230000 | 0.6 | 540000 | 0.00032 |  |  | kd (1/s) (IBIIICI scFv): * (key: *: too low for, or very close to the detection limit of, instrument specification (<10^−5))
7 | FIGITELKKLESKINK [UU70] | 230000 | 0.29 | 650000 | 0.00019 | 0.16 | 3.7e-05 | 
8 | B1 |  |  |  |  |  |  | competition with / blocking of CD40 ligand [1]: No competition between this antibody and CD40 ligand was observed; Kd (Human CD40-avi): 180 nM; ka (Human CD40-avi): 750000 M⁻¹ s⁻¹; kd (Human CD40-avi): 0.14 s⁻¹; agonistic profile, t-SNE cluster of surface expression of CD14, CD1a, CD40, HLA-DR, CD86 and CD83 [4]: potent agonistic profile; ka (Human CD40-Fc [2]): 320000 M⁻¹ s⁻¹; kd (Human CD40-Fc [2]): 0.0014 s⁻¹; Kd (Human CD40-Fc [2]; read-out: ^appKD, Human CD40-Fc, apparent affinity, 1:1 Langmuir model): 4.6 nM; internalisation ([5]; after 60 min at 37° C.): 50%; antibodies remained extracellular ([5]; after 4 h incubation): Approximately 30%; ka (Cynomolgus CD40-Fc): 490000 M⁻¹ s⁻¹; kd (Cynomolgus CD40-Fc): 0.0018 s⁻¹; Kd (Cynomolgus CD40-Fc; read-out: ^appKD, Cynomolgus CD40-Fc, apparent affinity, 1:1 Langmuir model): 3.8 nM
